Test results reported in ChEMBL document CHEMBL5532661, “Discovery of a Novel Glucagon-like Peptide-1 (GLP-1) Analogue from Bullfrog and Investigation of Its Potential for Designing GLP-1-Based Multiagonists” (J Med Chem, 2024).
Numbered stars: 1 amine (or outer) side, 2 acyl side, 3 side chain; on linkers, the order of the positions; unused ones are H or OH. Side chains are listed from the residue outwards. Peptide text beside a SMILES is read from it. * marks the point of attachment. C18 diacid = O=C(O)CCCCCCCCCCCCCCCCC(=O)*; γGlu = O=C(O)[C@H](CCC(=O)[*:2])N[*:1]; Palmitoyl = CCCCCCCCCCCCCCCC(=O)*; AEEA = NCCOCCOCC(=O)O

Columns and labels:
Assay type in all cases: functional, cell-based
[1] = target: T1, Glucagon-like peptide 1 receptor (Homo sapiens, UniProt P43220); assay: Agonist activity at human GLP-1 receptor expressed in HEK293 cells assessed as cAMP level measured after 60 mins by HTRF based assay
[2] = target: T1, Glucagon-like peptide 1 receptor; assay: Agonist activity at human GLP-1 receptor expressed in HEK293 cells assessed as cAMP level by measuring relative percent (GLP-1 EC50/compound EC50) measured after 60 mins by HTRF based assay relative to GLP-1
[3] = target: T2, Glucagon receptor (Homo sapiens, UniProt P47871); assay: Agonist activity at human GCGR expressed in HEK293 cells assessed as cAMP level measured after 60 mins by HTRF based assay
[4] = target: T2, Glucagon receptor; assay: Agonist activity at human GCGR expressed in HEK293 cells assessed as cAMP level by measuring relative percent (glucagon EC50/compound EC50) measured after 60 mins by HTRF based assay relative to glucagon

T1 sequence (P43220 whole entry): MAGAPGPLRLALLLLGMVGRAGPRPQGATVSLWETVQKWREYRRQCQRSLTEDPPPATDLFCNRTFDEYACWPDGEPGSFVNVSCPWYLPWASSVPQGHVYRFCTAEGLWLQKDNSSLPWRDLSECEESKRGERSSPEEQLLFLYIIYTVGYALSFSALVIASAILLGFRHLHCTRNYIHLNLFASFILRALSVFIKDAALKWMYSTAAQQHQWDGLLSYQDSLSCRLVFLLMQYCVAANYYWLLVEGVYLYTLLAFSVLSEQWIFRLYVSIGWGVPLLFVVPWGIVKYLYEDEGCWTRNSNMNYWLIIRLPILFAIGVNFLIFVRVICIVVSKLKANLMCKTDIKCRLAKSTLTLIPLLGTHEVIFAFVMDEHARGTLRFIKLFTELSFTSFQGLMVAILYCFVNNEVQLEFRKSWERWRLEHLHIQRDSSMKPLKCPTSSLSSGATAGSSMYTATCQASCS
T2 sequence (P47871 whole entry): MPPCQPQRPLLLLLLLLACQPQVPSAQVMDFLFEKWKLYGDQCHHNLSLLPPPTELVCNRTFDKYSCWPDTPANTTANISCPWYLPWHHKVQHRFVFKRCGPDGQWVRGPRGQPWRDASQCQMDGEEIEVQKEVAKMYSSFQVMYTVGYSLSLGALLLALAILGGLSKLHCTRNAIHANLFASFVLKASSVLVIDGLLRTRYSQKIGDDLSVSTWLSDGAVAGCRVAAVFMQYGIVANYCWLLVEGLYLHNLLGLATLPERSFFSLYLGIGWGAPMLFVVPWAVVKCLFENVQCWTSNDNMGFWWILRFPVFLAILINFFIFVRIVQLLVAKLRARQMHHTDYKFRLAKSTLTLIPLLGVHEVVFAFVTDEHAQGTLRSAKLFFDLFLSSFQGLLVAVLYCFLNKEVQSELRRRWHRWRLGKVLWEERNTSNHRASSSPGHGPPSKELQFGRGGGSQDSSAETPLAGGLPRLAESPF

Row | Compound | EC50 [1] [pM] | Activity ([2]; filed as agonist) [%] | EC50 [3] [pM] | Activity [4] [%] | Activity ([4]; filed as agonist) [%] | Activity [2] [%]
1 | H-HADGTFTSDMSSYLEEKAAKEFVDWLIKGRPA-NH2 | 18 |  |  |  |  | 
2 | CSCC[C@H](NC(=O)[C@H](CC(=O)O)NC(=O)[C@H](CO)NC(=O)[C@@H](NC(=O)[C@H](Cc1ccccc1)NC(=O)[C@@H](NC(=O)CNC(=O)[C@H](CCC(N)=O)NC(=O)[C@H](CO)NC(=O)[C@@H](N)Cc1c[nH]cn1)[C@@H](C)O)[C@@H](C)O)C(=O)N[C@@H](CO)C(=O)N[C@@H](CCCCN)C(=O)N[C@@H](Cc1ccc(O)cc1)C(=O)N[C@@H](CC(C)C)C(=O)N[C@@H](CC(=O)O)C(=O)N[C@@H](CO)C(=O)N[C@@H](CCCNC(=N)N)C(=O)N[C@@H](CCCNC(=N)N)C(=O)N[C@@H](C)C(=O)N[C@@H](CCC(N)=O)C(=O)N[C@@H](CC(=O)O)C(=O)N[C@@H](Cc1ccccc1)C(=O)N[C@H](C(=O)N[C@@H](CC(=O)O)C(=O)N[C@@H](Cc1c[nH]c2ccccc12)C(=O)N[C@@H](CC(C)C)C(=O)N[C@@H](CCCCN)C(=O)N[C@@H](CC(N)=O)C(=O)NCC(=O)NCC(=O)N1CCC[C@H]1C(=O)N[C@@H](CO)C(=O)N[C@@H](CO)C(=O)NCC(=O)N[C@@H](C)C(=O)N1CCC[C@H]1C(=O)N1CCC[C@H]1C(=O)N1CCC[C@H]1C(=O)N[C@@H](CO)C(=O)N[C@@H](CCCCNC(=O)COCCOCCNC(=O)COCCOCCNC(=O)CC[C@H](NC(=O)CCCCCCCCCCCCCCCCC(=O)O)C(=O)O)C(N)=O)C(C)C (H-HSQGTFTSDMSKYLDSRRAQDFVDWLKNGGPSSGAPPPSK([AEEA-AEEA-γGlu-C18 diacid])-NH2) | 34 | 156 | 3100 | 3 |  | 
3 | CCCCCCCCCCCCCCCC(=O)N[C@@H](CCC(=O)NCCCC[C@H](NC(=O)[C@H](CO)NC(=O)[C@H](CCSC)NC(=O)[C@H](CC(=O)O)NC(=O)[C@H](CO)NC(=O)[C@@H](NC(=O)[C@H](Cc1ccccc1)NC(=O)[C@@H](NC(=O)CNC(=O)[C@H](CCC(N)=O)NC(=O)[C@H](CO)NC(=O)[C@@H](N)Cc1c[nH]cn1)[C@@H](C)O)[C@@H](C)O)C(=O)N[C@@H](Cc1ccc(O)cc1)C(=O)N[C@@H](CC(C)C)C(=O)N[C@@H](CC(=O)O)C(=O)N[C@@H](CO)C(=O)N[C@@H](CCCNC(=N)N)C(=O)N[C@@H](CCCNC(=N)N)C(=O)N[C@@H](C)C(=O)N[C@@H](CCC(N)=O)C(=O)N[C@@H](CC(=O)O)C(=O)N[C@@H](Cc1ccccc1)C(=O)N[C@H](C(=O)N[C@@H](CC(=O)O)C(=O)N[C@@H](Cc1c[nH]c2ccccc12)C(=O)N[C@@H](CC(C)C)C(=O)N[C@@H](CCCCN)C(=O)N[C@@H](CC(N)=O)C(=O)NCC(=O)NCC(=O)N1CCC[C@H]1C(=O)N[C@@H](CO)C(=O)N[C@@H](CO)C(=O)NCC(=O)N[C@@H](C)C(=O)N1CCC[C@H]1C(=O)N1CCC[C@H]1C(=O)N1CCC[C@H]1C(=O)N[C@@H](CO)C(N)=O)C(C)C)C(=O)O (H-HSQGTFTSDMSK([γGlu-Palmitoyl])YLDSRRAQDFVDWLKNGGPSSGAPPPS-NH2) | 46 | 115 | 190 |  | 48 | 
4 | H-HADGTFTSDMSSYLEEKRAKEFVDWLIKGRPK-NH2 | 720 |  |  |  |  | 
5 | H-HADGTFTSDMSAYLEEKAAKEFVDWLIKGRPK-NH2 | 120 |  |  |  |  | 
6 | H-HSQGTFTSDMSSYLDSRRAQDFVDWLMNT-NH2 | 960 |  | 510 | 18 |  | 6
7 | H-HSQGTFTSDMSSYLDSRRAQDFVDWLMNTKRNRNNIA-NH2 | 110 | 45 | 850 | 11 |  | 
8 | H-HAEGTYTDDVSTYLQDQAAKDFVSWLKSGRA-NH2 | 310 |  |  |  |  | 
9 | H-HADGIYTSDVASLTDYLKSKRFVESLSNYNRKQNDRRM-NH2 | 190 |  |  |  |  | 
10 | H-HADGTFTSDMSSYLEEKAAKEFVDWLIKGRAK-NH2 | 99 |  |  |  |  | 
11 | H-HSQGTFTSDMSKYLDSRRAQDFVDWLIKGRPSSGAPPPS-NH2 | 130 | 41 | 910 | 10 |  | 
12 | H-HSQGTFTSDMSSYLDSRRAQDFVDWLIKGR-NH2 | 700 |  | 3100 | 3 |  | 5
13 | H-HSQGTFTSDMSKYLDSRRAQDFVDWLIKGR-NH2 | 280 |  | 1800 | 5 |  | 19
14 | H-HADGTFTSDMSSYLEEKAAKEFVDALIKGRPK-NH2 | 92 |  |  |  |  | 
15 | H-HSQGTFTSDMSKYLDSRRAQDFVDWLKNGGPSSGAPPPS-NH2 | 16 | 331 | 52 |  | 177 | 
16 | H-HSQGTFTSDMSKYLDSRRAQDFVDWLIKG-NH2 | 810 |  | 2600 | 4 |  | 7
17 | H-HADGTFTSDMSSYLEEKAAKEFVAWLIKGRPK-NH2 | 96 |  |  |  |  | 

Row | Compound | EC50 [1] [pM] | Activity ([2]; filed as agonist) [%] | EC50 [3] [pM] | Activity [4] [%] | Activity ([4]; filed as agonist) [%] | Activity [2] [%]
18 | H-HADGTFTNDMTSYLDAKAARDFVSWLARSDKS-NH2 | 230 |  |  |  |  | 
19 | CSCC[C@H](NC(=O)[C@H](CC(=O)O)NC(=O)[C@H](CO)NC(=O)[C@@H](NC(=O)[C@H](Cc1ccccc1)NC(=O)[C@@H](NC(=O)CNC(=O)[C@H](CCC(N)=O)NC(=O)[C@H](CO)NC(=O)[C@@H](N)Cc1c[nH]cn1)[C@@H](C)O)[C@@H](C)O)C(=O)N[C@@H](CO)C(=O)N[C@@H](CCCCNC(=O)COCCOCCNC(=O)COCCOCCNC(=O)CC[C@H](NC(=O)CCCCCCCCCCCCCCCCC(=O)O)C(=O)O)C(=O)N[C@@H](Cc1ccc(O)cc1)C(=O)N[C@@H](CC(C)C)C(=O)N[C@@H](CC(=O)O)C(=O)N[C@@H](CO)C(=O)N[C@@H](CCCNC(=N)N)C(=O)N[C@@H](CCCNC(=N)N)C(=O)N[C@@H](C)C(=O)N[C@@H](CCC(N)=O)C(=O)N[C@@H](CC(=O)O)C(=O)N[C@@H](Cc1ccccc1)C(=O)N[C@H](C(=O)N[C@@H](CC(=O)O)C(=O)N[C@@H](Cc1c[nH]c2ccccc12)C(=O)N[C@@H](CC(C)C)C(=O)N[C@@H](CCCCN)C(=O)N[C@@H](CC(N)=O)C(=O)NCC(=O)NCC(=O)N1CCC[C@H]1C(=O)N[C@@H](CO)C(=O)N[C@@H](CO)C(=O)NCC(=O)N[C@@H](C)C(=O)N1CCC[C@H]1C(=O)N1CCC[C@H]1C(=O)N1CCC[C@H]1C(=O)N[C@@H](CO)C(N)=O)C(C)C (H-HSQGTFTSDMSK([AEEA-AEEA-γGlu-C18 diacid])YLDSRRAQDFVDWLKNGGPSSGAPPPS-NH2) | 52 | 102 | 1400 | 7 |  | 
20 | H-HADGTYTSDVSSYLQDQAAKKFVTWLKQGQDRRE-NH2 | 350 |  |  |  |  | 
21 | H-HSQGTFTSDMSSYLDSRRAQEFVDWLIKGR-NH2 | 870 |  | 3500 | 3 |  | 6
22 | H-HADGTFTSDMSSYLEEKAAKEFVDWLIAGRPK-NH2 | 120 |  |  |  |  | 
23 | H-HADGTFTSDMSSYLEEKAAKEFVDWLIKGRPK-NH2 | 51 |  |  |  |  | 
24 | H-HADGTFTSDMSSYLEEKAAKEFADWLIKGRPK-NH2 | 94 |  |  |  |  | 
25 | H-HADGTFTSDMSSYLEEKAAKEFVDWAIKGRPK-NH2 | 530 |  |  |  |  | 
26 | H-HSQGTFTSDMSSYLDSRRAQDFVDWLIKGRPSSGAPPPS-NH2 | 210 |  | 1800 | 5 |  | 25
27 | CSCC[C@H](NC(=O)[C@H](CC(=O)O)NC(=O)[C@H](CO)NC(=O)[C@@H](NC(=O)[C@H](Cc1ccccc1)NC(=O)[C@@H](NC(=O)CNC(=O)[C@H](CCC(N)=O)NC(=O)[C@H](CO)NC(=O)[C@@H](N)Cc1c[nH]cn1)[C@@H](C)O)[C@@H](C)O)C(=O)N[C@@H](CO)C(=O)N[C@@H](CCCCN)C(=O)N[C@@H](Cc1ccc(O)cc1)C(=O)N[C@@H](CCCCNC(=O)COCCOCCNC(=O)COCCOCCNC(=O)CC[C@H](NC(=O)CCCCCCCCCCCCCCCCC(=O)O)C(=O)O)C(=O)N[C@@H](CC(=O)O)C(=O)N[C@@H](CO)C(=O)N[C@@H](CCCNC(=N)N)C(=O)N[C@@H](CCCNC(=N)N)C(=O)N[C@@H](C)C(=O)N[C@@H](CCC(N)=O)C(=O)N[C@@H](CC(=O)O)C(=O)N[C@@H](Cc1ccccc1)C(=O)N[C@H](C(=O)N[C@@H](CC(=O)O)C(=O)N[C@@H](Cc1c[nH]c2ccccc12)C(=O)N[C@@H](CC(C)C)C(=O)N[C@@H](CCCCN)C(=O)N[C@@H](CC(N)=O)C(=O)NCC(=O)NCC(=O)N1CCC[C@H]1C(=O)N[C@@H](CO)C(=O)N[C@@H](CO)C(=O)NCC(=O)N[C@@H](C)C(=O)N1CCC[C@H]1C(=O)N1CCC[C@H]1C(=O)N1CCC[C@H]1C(=O)N[C@@H](CO)C(N)=O)C(C)C (H-HSQGTFTSDMSKYK([AEEA-AEEA-γGlu-C18 diacid])DSRRAQDFVDWLKNGGPSSGAPPPS-NH2) | 49 | 108 | 1200 | 8 |  | 
28 | H-HADGTFTSDMSSYLAEKAAKEFVDWLIKGRPK-NH2 | 610 |  |  |  |  | 
29 | H-HADGTFTSDMSSYLEEKAAKEFVDWLIKARPK-NH2 | 630 |  |  |  |  | 
30 | H-HADGTFTSDMSSYLEEKAAKAFVDWLIKGRPK-NH2 | 110 |  |  |  |  | 
31 | H-HADGTFTSDMSSYLEEKAAKEAVDWLIKGRPK-NH2 | 660 |  |  |  |  | 
32 | H-HADGTFTSDMSSALEEKAAKEFVDWLIKGRPK-NH2 | 560 |  |  |  |  | 
33 | H-HADGTFTSDMSSYLEEKAAKEFVDWLIKGAPK-NH2 | 97 |  |  |  |  | 
